Assay results: patent publication US4599310A, “Process for producing antitumor antibiotic compound” (priority 1985, dated 1986)
Values after ≈ are worked out from the molar mass of the structure shown. Bridge positions count the residues as written; N and C are the ends. Square brackets hold non-standard residues; d marks the D form. Peptide text beside a SMILES is read from it. I, II: the chains in the order shown. * marks the point of attachment. Quinaldoyl(3-OH) = O=C(c1nc2ccccc2cc1O)*; NMeV = CN[CH](C(=O)O)C(C)C; Pip = O=C(O)[CH]1CCCCN1; Sar = CNCC(=O)O

Legend:
S. aureus 209P-A9497 = experiment: Antibacterial activity, serial two-fold agar dilution method; format: cell-based; details: Staphylococcus aureus, read-out: Minimum Inhibitory Concentration (MIC)
Description: (§1) The antibacterial activities of sandramycin were determined by a serial two-fold agar dilution method. The results are shown in Table 5 in comparison with the activities of luzopeptin A and echinomycin.

P-388 leukemia = experiment: Transplantable mouse tumor P-388 leukemia; format: in vivo, mouse (CDF1 female mice); details: for MST (median survival time): control MST 9.0 days
Description: The methodology used generally followed the protocols of the National Cancer Institute [Cancer Chemotherapy Rep. Part 3, 3, 1-103 (1972)]. The essential experimental details are given at the bottom of Table 6. Two different dose regimens were tested: single dose on day 1 and daily for 5 days. With both schedules, the optimum dose appears to be about 0.2 mg/kg/injection.
Tumor inoculum: 10^6 ascites cells implanted i.p.
Evaluation: MST = median survival time
Effect: % T/C ≥ (MST treated/MST control) × 100
Criteria: % T/C = 125 considered significant antitumor activity
AWC: average weight change (treatedcontrol) in grams (on day 4)

[1] = tested on: gram-positive organisms such as Bacillus subtilis and Staphylococcus aureus as well as Streptococcus faecalis; experiment: Antibacterial activity, serial two-fold agar dilution method (statement in words); format: cell-based
Description: as §1

Structure (SMILES): CS[C@H]1SC[C@H]2C(=O)N(C)[C@@H](C(C)C)C(=O)OC[C@@H](NC(=O)c3cnc4ccccc4n3)C(=O)N[C@@H](C)C(=O)N(C)[C@@H]1C(=O)N(C)[C@@H](C(C)C)C(=O)OC[C@@H](NC(=O)c1cnc3ccccc3n1)C(=O)N[C@@H](C)C(=O)N2C [Echinomycin, reference compound]
- MIC (S. aureus 209P-A9497): 0.012 µg/mL (≈ 0.0109 µM)

Structure (SMILES): CC(C)C1C(=O)OCC(NC(=O)c2nc3ccccc3cc2O)C(=O)N2CCCCC2C(=O)NCC(=O)N(C)CC(=O)N(C)C(C(C)C)C(=O)OCC(NC(=O)c2nc3ccccc3cc2O)C(=O)N2CCCCC2C(=O)NCC(=O)N(C)CC(=O)N1C (stereo not drawn) [Sandramycin] (I: {Quinaldoyl(3-OH)}-S[Pip]G[Sar][NMeV] / II: {Quinaldoyl(3-OH)}-S[Pip]G[Sar][NMeV]; ester I:1-II:C, I:C-II:1; configuration not given here)
- MIC (S. aureus 209P-A9497): 0.012 µg/mL (≈ 0.00983 µM)
- optimum dose (P-388 leukemia; both schedules: single dose on day 1 and daily for 5 days, IP): about 0.2 mg/kg/injection
- AWC (average weight change) Day 4 (P-388 leukemia; d. 1, IP, 0.025 mg/kg/inj.): -0.2 gm
- MST (median survival time) (P-388 leukemia; d. 1, IP, 0.025 mg/kg/inj.): 9.5 days
- AWC (average weight change) Day 4 (P-388 leukemia; d. 1, IP, 0.05 mg/kg/inj.): -0.6 gm
- MST (median survival time) (P-388 leukemia; d. 1, IP, 0.05 mg/kg/inj.): 10.0 days
- AWC (average weight change) Day 4 (P-388 leukemia; d. 1, IP, 0.1 mg/kg/inj.): -0.9 gm
- MST (median survival time) (P-388 leukemia; d. 1, IP, 0.1 mg/kg/inj.): 11.0 days
- AWC (average weight change) Day 4 (P-388 leukemia; d. 1, IP, 0.2 mg/kg/inj.): -1.4 gm
- AWC (average weight change) Day 4 (P-388 leukemia; d. 1, IP, 0.4 mg/kg/inj.): -0.7 gm
- MST (median survival time) (P-388 leukemia; d. 1, IP, 0.4 mg/kg/inj.): 11.0 days
- AWC (average weight change) Day 4 (P-388 leukemia; d. 1, IP, 0.8 mg/kg/inj.): -1.6 gm
- MST (median survival time) (P-388 leukemia; d. 1, IP, 0.8 mg/kg/inj.): 10.0 days
- AWC (average weight change) Day 4 (P-388 leukemia; d. 1, IP, 1.6 mg/kg/inj.): -1.3 gm
- AWC (average weight change) Day 4 (P-388 leukemia; d. 1, IP, 3.2 mg/kg/inj.): -2.8 gm
- MST (median survival time) (P-388 leukemia; d. 1, IP, 3.2 mg/kg/inj.): Toxic
- AWC (average weight change) Day 4 (P-388 leukemia; d. 1→5, IP, 0.0125 mg/kg/inj.): -0.9 gm
- Survivors Day 5 (P-388 leukemia; d. 1→5, IP, 0.0125 mg/kg/inj.): 6/6
- AWC (average weight change) Day 4 (P-388 leukemia; d. 1→5, IP, 0.025 mg/kg/inj.): -1.4 gm
- MST (median survival time) (P-388 leukemia; d. 1→5, IP, 0.025 mg/kg/inj.): 10.0 days
- AWC (average weight change) Day 4 (P-388 leukemia; d. 1→5, IP, 0.05 mg/kg/inj.): -1.8 gm
- MST (median survival time) (P-388 leukemia; d. 1→5, IP, 0.05 mg/kg/inj.): 8.5 days
- AWC (average weight change) Day 4 (P-388 leukemia; d. 1→5, IP, 0.1 mg/kg/inj.): -0.8 gm
- AWC (average weight change) Day 4 (P-388 leukemia; d. 1→5, IP, 0.2 mg/kg/inj.): -1.7 gm
- MST (median survival time) (P-388 leukemia; d. 1→5, IP, 0.2 mg/kg/inj.): 12.0 days
- AWC (average weight change) Day 4 (P-388 leukemia; d. 1→5, IP, 0.4 mg/kg/inj.): -1.3 gm
- MST (median survival time) (P-388 leukemia; d. 1→5, IP, 0.4 mg/kg/inj.): 11.0 days
- AWC (average weight change) Day 4 (P-388 leukemia; d. 1→5, IP, 0.8 mg/kg/inj.): -1.4 gm
- MST (median survival time) (P-388 leukemia; d. 1→5, IP, 0.8 mg/kg/inj.): 6.0 days
- AWC (average weight change) Day 4 (P-388 leukemia; d. 1→5, IP, 1.6 mg/kg/inj.): -1.7 gm
- MST (median survival time) (P-388 leukemia; d. 1→5, IP, 1.6 mg/kg/inj.): Toxic
- antibacterial activity [1]: strongly inhibitory
